Measured values as given in paper PMC5218480 (PLoS ONE, 2017).

Test system: MV-4-11 cells
Test: Gene expression microarray analysis (Affymetrix PrimeView) and GSEA
Type: cell-based, human
Set-up: RFU PODN (11730768_x_at) / Fold change /veh PODN (11730768_x_at) / RFU LINC00158 (11744669_a_at) / Fold change /veh LINC00158 (11744669_a_at) / RFU DUSP10 (11751237_a_at) / Fold change /veh DUSP10 (11751237_a_at) / RFU ID3 (11757404_x_at) / Fold change /veh ID3 (11757404_x_at) / RFU PLEKHG5 (11737974_s_at) / Fold change /veh PLEKHG5 (11737974_s_at) / RFU LRRC4B (11730491_at) / Fold change /veh LRRC4B (11730491_at) / RFU GIMAP4 (11747438_a_at) / Fold change /veh GIMAP4 (11747438_a_at) / RFU KRT8 (11758183_x_at) / Fold change /veh KRT8 (11758183_x_at) / RFU CNN1 (11734310_a_at) / Fold change /veh CNN1 (11734310_a_at) / RFU VPS37D (11726825_at) / Fold change /veh VPS37D (11726825_at) / RFU C10orf10 (11716522_x_at) / Fold change /veh C10orf10 (11716522_x_at) / RFU KIR2DL2 /// KIR2DL4 /// KIR2DL5A /// KIR2DL5B /// KIR2DS1 /// KIR2DS2 /// KIR2DS3 /// KIR2DS4 /// KIR3DL3 /// KIR3DL3 /// KIR3DS1 (11738374_at) / Fold change /veh KIR2DL2 /// KIR2DL4 /// KIR2DL5A /// KIR2DL5B /// KIR2DS1 /// KIR2DS2 /// KIR2DS3 /// KIR2DS4 /// KIR3DL3 /// KIR3DL3 /// KIR3DS1 (11738374_at) / RFU C1QL1 (11718748_at) / Fold change /veh C1QL1 (11718748_at) / RFU TMPRSS4 (11747572_a_at) / Fold change /veh TMPRSS4 (11747572_a_at) / RFU HAMP (11756126_x_at) / Fold change /veh HAMP (11756126_x_at) / RFU RNFT2 (11725882_a_at) / Fold change /veh RNFT2 (11725882_a_at) / RFU NR4A2 (11747474_a_at) / Fold change /veh NR4A2 (11747474_a_at) / RFU ABCC12 (11746883_a_at) / Fold change /veh ABCC12 (11746883_a_at) / RFU TMEM136 (11760407_x_at) / Fold change /veh TMEM136 (11760407_x_at) / RFU CLDN22 /// WWC2 (11732394_at) / Fold change /veh CLDN22 /// WWC2 (11732394_at) / RFU HLA-DPB1 (11760878_x_at) / Fold change /veh HLA-DPB1 (11760878_x_at) / RFU SPINT1 (11716480_a_at) / Fold change /veh SPINT1 (11716480_a_at) / RFU GAP43 (11754022_s_at) / Fold change /veh GAP43 (11754022_s_at) / RFU A4GNT (11735810_at) / Fold change /veh A4GNT (11735810_at) / RFU PRB3 (11715151_x_at) / Fold change /veh PRB3 (11715151_x_at) / RFU TUBB4B (11761932_at) / Fold change /veh TUBB4B (11761932_at) / RFU CAPN14 (11732068_a_at) / Fold change /veh CAPN14 (11732068_a_at) / RFU TMCC2 (11721928_a_at) / Fold change /veh TMCC2 (11721928_a_at) / RFU IRGQ (11745062_a_at) / Fold change /veh IRGQ (11745062_a_at) / RFU FAM174B (11720279_a_at) / Fold change /veh FAM174B (11720279_a_at) / RFU TMPRSS4 (11748680_a_at) / Fold change /veh TMPRSS4 (11748680_a_at) / RFU FAM212B (11763350_a_at) / Fold change /veh FAM212B (11763350_a_at) / RFU PLEKHG5 (11743358_a_at) / Fold change /veh PLEKHG5 (11743358_a_at) / RFU ZSCAN30 (11745921_a_at) / Fold change /veh ZSCAN30 (11745921_a_at) / RFU CMKLR1 (11741424_a_at) / Fold change /veh CMKLR1 (11741424_a_at) / RFU LOC101060620 /// MAPK8IP1 (11723275_at) / Fold change /veh LOC101060620 /// MAPK8IP1 (11723275_at) / RFU SPTSSB (11747773_x_at) / Fold change /veh SPTSSB (11747773_x_at) / RFU PRSS12 (11739890_at) / Fold change /veh PRSS12 (11739890_at) / RFU BIN1 (11741810_x_at) / Fold change /veh BIN1 (11741810_x_at) / RFU WNT11 (11732464_a_at) / Fold change /veh WNT11 (11732464_a_at) / RFU C10orf10 (11716521_a_at) / Fold change /veh C10orf10 (11716521_a_at) / RFU C5orf56 (11738089_at) / Fold change /veh C5orf56 (11738089_at) / RFU CYB561 (11721691_x_at) / Fold change /veh CYB561 (11721691_x_at) / RFU ANKRD19P (11752326_a_at) / Fold change /veh ANKRD19P (11752326_a_at) / RFU OR2T12 /// OR2T33 /// OR2T8 (11738714_s_at) / Fold change /veh OR2T12 /// OR2T33 /// OR2T8 (11738714_s_at) / RFU VCAN (11748164_a_at) / Fold change /veh VCAN (11748164_a_at) / RFU JSRP1 (11732532_at) / Fold change /veh JSRP1 (11732532_at) / RFU KRTAP10-11 (11738290_x_at) / Fold change /veh KRTAP10-11 (11738290_x_at) / RFU MYO3A (11730013_a_at) / Fold change /veh MYO3A (11730013_a_at) / RFU EBF3 (11725865_a_at) / Fold change /veh EBF3 (11725865_a_at) / RFU CAMK2N1 (11719241_x_at) / Fold change /veh CAMK2N1 (11719241_x_at) / RFU C5orf56 (11738088_a_at) / Fold change /veh C5orf56 (11738088_a_at) / RFU OLFML3 (11715873_a_at) / Fold change /veh OLFML3 (11715873_a_at) / RFU LOC100653217 /// NTM (11731650_a_at) / Fold change /veh LOC100653217 /// NTM (11731650_a_at) / RFU MAPK11 (11762145_a_at) / Fold change /veh MAPK11 (11762145_a_at) / RFU FIZ1 (11724087_x_at) / Fold change /veh FIZ1 (11724087_x_at) / RFU OASL (11726364_x_at) / Fold change /veh OASL (11726364_x_at) / RFU SOX15 (11748057_x_at) / Fold change /veh SOX15 (11748057_x_at) / RFU CD79A (11719716_a_at) / Fold change /veh CD79A (11719716_a_at) / RFU HIST1H1D (11736915_at) / Fold change /veh HIST1H1D (11736915_at) / RFU CASKIN2 (11723855_a_at) / Fold change /veh CASKIN2 (11723855_a_at) / RFU LOC730098 (11760151_x_at) / Fold change /veh LOC730098 (11760151_x_at) / RFU OR4N2 (11742367_at) / Fold change /veh OR4N2 (11742367_at) / RFU PRRT2 (11749266_a_at) / Fold change /veh PRRT2 (11749266_a_at) / RFU SNX32 (11753110_a_at) / Fold change /veh SNX32 (11753110_a_at) / RFU CDHR5 (11726645_a_at) / Fold change /veh CDHR5 (11726645_a_at) / RFU RCAN1 (11760418_a_at) / Fold change /veh RCAN1 (11760418_a_at) / RFU FAM167A (11723789_a_at) / Fold change /veh FAM167A (11723789_a_at) / RFU FAM26E (11764081_at) / Fold change /veh FAM26E (11764081_at) / RFU ISYNA1 (11749810_s_at) / Fold change /veh ISYNA1 (11749810_s_at) / RFU ACY1 (11761880_at) / Fold change /veh ACY1 (11761880_at) / RFU 11764098_at / Fold change /veh 11764098_at / RFU SAMD14 (11745864_x_at) / Fold change /veh SAMD14 (11745864_x_at) / RFU NPB (11741838_a_at) / Fold change /veh NPB (11741838_a_at) / RFU TMPRSS6 (11731388_a_at) / Fold change /veh TMPRSS6 (11731388_a_at) / RFU KRTAP10-2 (11738614_at) / Fold change /veh KRTAP10-2 (11738614_at) / RFU ARHGAP8 /// PRR5-ARHGAP8 (11727945_x_at) / Fold change /veh ARHGAP8 /// PRR5-ARHGAP8 (11727945_x_at) / RFU KRTAP5-7 /// NADSYN1 (11734609_at) / Fold change /veh KRTAP5-7 /// NADSYN1 (11734609_at) / RFU RASL12 (11751679_a_at) / Fold change /veh RASL12 (11751679_a_at) / RFU CDKN2B (11736163_a_at) / Fold change /veh CDKN2B (11736163_a_at) / RFU PRF1 (11729649_at) / Fold change /veh PRF1 (11729649_at) / RFU, ZNF638 /// ZNF638-IT1 / Fold change vs veh, ZNF638 /// ZNF638-IT1 / RFU, PANK3 / Fold change vs veh, PANK3 / RFU, SH3YL1 / Fold change vs veh, SH3YL1 / RFU, ZEB2 / Fold change vs veh, ZEB2 / RFU, NRIP1 / Fold change vs veh, NRIP1 / RFU, PTTG1IP / Fold change vs veh, PTTG1IP / RFU, CAPN2 / Fold change vs veh, CAPN2 / RFU, MED14 / Fold change vs veh, MED14 / RFU, SNORA58 / Fold change vs veh, SNORA58 / RFU, C1orf63 / Fold change vs veh, C1orf63 / RFU, LRRFIP1 / Fold change vs veh, LRRFIP1 / RFU, NDUFAF7 / Fold change vs veh, NDUFAF7 / RFU, SLC12A2 / Fold change vs veh, SLC12A2 / RFU, IBTK / Fold change vs veh, IBTK / RFU, ESF1 / Fold change vs veh, ESF1 / Fold change vs veh, TMEM50B / RFU, TAOK1 / Fold change vs veh, TAOK1 / RFU, ACBD3 / Fold change vs veh, ACBD3 / RFU, TMA16 / Fold change vs veh, TMA16 / RFU, RWDD3 / Fold change vs veh, RWDD3 / RFU, BCAT1 / Fold change vs veh, BCAT1 / RFU, EDEM3 / Fold change vs veh, EDEM3 / RFU, TMEM33 / Fold change vs veh, TMEM33 / RFU, WDR75 / Fold change vs veh, WDR75 / RFU, AHCTF1 / Fold change vs veh, AHCTF1 / RFU, TFRC / Fold change vs veh, TFRC / RFU, ZDHHC17 / Fold change vs veh, ZDHHC17 / RFU, NOM1 / Fold change vs veh, NOM1 / RFU, ARL8B / Fold change vs veh, ARL8B / RFU, ZBTB11 / Fold change vs veh, ZBTB11 / RFU, TAMM41 / Fold change vs veh, TAMM41 / RFU, KIAA1704 /// LOC100996395 / Fold change vs veh, KIAA1704 /// LOC100996395 / RFU, ING1 / Fold change vs veh, ING1 / RFU, TRMT61B / Fold change vs veh, TRMT61B / RFU, FUBP3 / Fold change vs veh, FUBP3 / RFU, TP53 / Fold change vs veh, TP53 / RFU, TNKS2 / Fold change vs veh, TNKS2 / RFU, ZFP14 / Fold change vs veh, ZFP14 / RFU, ACTR2 / Fold change vs veh, ACTR2 / RFU, PPP3R1 / Fold change vs veh, PPP3R1 / RFU, PIK3R1 / Fold change vs veh, PIK3R1 / RFU, HNRNPA1 / Fold change vs veh, HNRNPA1 / RFU, RNF170 / Fold change vs veh, RNF170 / RFU, ZNF28 / Fold change vs veh, ZNF28 / RFU, RNGTT / Fold change vs veh, RNGTT / RFU, OGT / Fold change vs veh, OGT / RFU, BRD1 / Fold change vs veh, BRD1 / RFU, MARS / Fold change vs veh, MARS / RFU, ZNF655 / Fold change vs veh, ZNF655 / RFU, FAHD1 / Fold change vs veh, FAHD1 / RFU, BDP1 / Fold change vs veh, BDP1 / RFU, LRRCC1 / Fold change vs veh, LRRCC1 / RFU, ARID1A / Fold change vs veh, ARID1A / RFU, ZNF146 / Fold change vs veh, ZNF146 / RFU, ZNF330 / Fold change vs veh, ZNF330 / RFU, GPN3 / Fold change vs veh, GPN3 / RFU, C9orf123 / Fold change vs veh, C9orf123 / RFU, N4BP2L2 / Fold change vs veh, N4BP2L2 / RFU, ARFIP1 / Fold change vs veh, ARFIP1 / RFU, FAM179B / Fold change vs veh, FAM179B / RFU, BCL10 / Fold change vs veh, BCL10 / RFU, UHRF1BP1L / Fold change vs veh, UHRF1BP1L / RFU, BET1 / Fold change vs veh, BET1 / RFU, CNOT2 / Fold change vs veh, CNOT2 / RFU, ZNF268 / Fold change vs veh, ZNF268 / Fold change vs veh, ZNF507 / RFU, DGCR2 / Fold change vs veh, DGCR2 / RFU, WDSUB1 / Fold change vs veh, WDSUB1 / Fold change vs veh, HSP90B1 /// MIR3652 / RFU, ADSS / Fold change vs veh, ADSS / RFU, GK / Fold change vs veh, GK / RFU, ZNF148 / Fold change vs veh, ZNF148 / RFU, TAF9 / Fold change vs veh, TAF9 / RFU, SLC1A5 / Fold change vs veh, SLC1A5 / RFU, SLMO2 / Fold change vs veh, SLMO2 / RFU, ABCC4 / Fold change vs veh, ABCC4 / RFU, LOC101060439 /// RAP1B / Fold change vs veh, LOC101060439 /// RAP1B / RFU, RFX7 / Fold change vs veh, RFX7 / RFU, GTPBP10 / Fold change vs veh, GTPBP10 / RFU, CNEP1R1 / Fold change vs veh, CNEP1R1 / RFU, BIVM-ERCC5 /// ERCC5 / Fold change vs veh, BIVM-ERCC5 /// ERCC5 / RFU, ILF3 / Fold change vs veh, ILF3 / RFU 11762660_at / Fold change /veh 11762660_at / RFU VCAN (11757783_s_at) / Fold change /veh VCAN (11757783_s_at) / RFU DDX43 (11728927_at) / Fold change /veh DDX43 (11728927_at) / RFU KRT8 (11758188_x_at) / Fold change /veh KRT8 (11758188_x_at) / RFU NKD1 (11759106_at) / Fold change /veh NKD1 (11759106_at) / RFU SRD5A1 (11742802_a_at) / Fold change /veh SRD5A1 (11742802_a_at) / RFU TPSAB1 /// TPSB2 (11721975_s_at) / Fold change /veh TPSAB1 /// TPSB2 (11721975_s_at) / RFU GSTM3 (11746129_a_at) / Fold change /veh GSTM3 (11746129_a_at) / RFU IL23R (11737362_x_at) / Fold change /veh IL23R (11737362_x_at) / RFU TMEM51 (11727254_a_at) / Fold change /veh TMEM51 (11727254_a_at) / RFU PIWIL2 (11732686_x_at) / Fold change /veh PIWIL2 (11732686_x_at) / RFU ORM1 (11744905_x_at) / Fold change /veh ORM1 (11744905_x_at) / RFU CCDC152 (11743942_at) / Fold change /veh CCDC152 (11743942_at) / RFU ECM1 (11717891_a_at) / Fold change /veh ECM1 (11717891_a_at) / RFU IL23R (11748794_a_at) / Fold change /veh IL23R (11748794_a_at) / RFU TNFAIP8L3 (11732012_x_at) / Fold change /veh TNFAIP8L3 (11732012_x_at) / RFU MBOAT4 (11741988_at) / Fold change /veh MBOAT4 (11741988_at) / RFU 11764193_at / Fold change /veh 11764193_at / RFU TMEM53 (11763286_at) / Fold change /veh TMEM53 (11763286_at) / RFU MAGEB2 (11727129_at) / Fold change /veh MAGEB2 (11727129_at) / RFU TMEM200A (11744735_a_at) / Fold change /veh TMEM200A (11744735_a_at) / RFU CCDC152 (11751479_a_at) / Fold change /veh CCDC152 (11751479_a_at) / RFU FAM211A (11726209_a_at) / Fold change /veh FAM211A (11726209_a_at) / RFU RGS16 (11746705_a_at) / Fold change /veh RGS16 (11746705_a_at) / RFU VCAN (11755009_s_at) / Fold change /veh VCAN (11755009_s_at) / RFU RHOB (11743442_s_at) / Fold change /veh RHOB (11743442_s_at) / RFU RGS16 (11720943_a_at) / Fold change /veh RGS16 (11720943_a_at) / RFU RGS16 (11720944_at) / Fold change /veh RGS16 (11720944_at) / RFU, VPS4B / Fold change vs veh, VPS4B / RFU, CREB1 / Fold change vs veh, CREB1 / RFU, DNAJC13 / Fold change vs veh, DNAJC13 / RFU, GNAQ / Fold change vs veh, GNAQ / RFU, CDK5R1 / Fold change vs veh, CDK5R1 / RFU, ZRANB3 / Fold change vs veh, ZRANB3 / RFU, CUL4A / Fold change vs veh, CUL4A / RFU, CCNY / Fold change vs veh, CCNY / RFU, UFL1 / Fold change vs veh, UFL1 / RFU, COG3 / Fold change vs veh, COG3 / RFU, DIAPH2 / Fold change vs veh, DIAPH2 / RFU, SKA2 / Fold change vs veh, SKA2 / RFU, AFF3 / Fold change vs veh, AFF3 / RFU, LMF1 / Fold change vs veh, LMF1 / RFU, IPO11 / Fold change vs veh, IPO11 / RFU, DFFB / Fold change vs veh, DFFB / RFU, FOXP1 / Fold change vs veh, FOXP1 / RFU, CARD8 / Fold change vs veh, CARD8 / RFU, STRN3 / Fold change vs veh, STRN3 / RFU, ADK / Fold change vs veh, ADK / RFU, RASSF2 / Fold change vs veh, RASSF2 / RFU, WIPF1 / Fold change vs veh, WIPF1 / RFU, LARP1B / Fold change vs veh, LARP1B / RFU, RASA1 / Fold change vs veh, RASA1 / RFU, RB1 / Fold change vs veh, RB1 / RFU, PPFIA1 / Fold change vs veh, PPFIA1 / RFU, MAT2A / Fold change vs veh, MAT2A / RFU, CCT5 / Fold change vs veh, CCT5 / RFU, WDR92 / Fold change vs veh, WDR92 / RFU, CUX1 / Fold change vs veh, CUX1 / RFU, TTC7A / Fold change vs veh, TTC7A / RFU, TMEM135 / Fold change vs veh, TMEM135 / RFU, DEPTOR / Fold change vs veh, DEPTOR / RFU, CPM / Fold change vs veh, CPM / RFU, DNAJB6 / Fold change vs veh, DNAJB6 / RFU, CACNA2D3 / Fold change vs veh, CACNA2D3 / RFU, DTX4 / Fold change vs veh, DTX4 / RFU, TFCP2 / Fold change vs veh, TFCP2 / RFU, GMCL1 /// GMCL1P1 / Fold change vs veh, GMCL1 /// GMCL1P1 / RFU, AEBP2 / Fold change vs veh, AEBP2 / RFU, SNHG1 /// SNORD22 /// SNORD25 /// SNORD26 /// SNORD27 /// SNORD28 /// SNORD29 /// SNORD31 / Fold change vs veh, SNHG1 /// SNORD22 /// SNORD25 /// SNORD26 /// SNORD27 /// SNORD28 /// SNORD29 /// SNORD31 / Fold change (Aza/veh), C12orf56 (ProbeSet 11735607_a_at) / Fold change (ACY-1035/veh), C12orf56 (ProbeSet 11735607_a_at) / Fold change (Aza/veh), FGFR1OP (ProbeSet 11751329_s_at) / Fold change (ACY-1035/veh), FGFR1OP (ProbeSet 11751329_s_at) / Fold change (Aza/veh), VPS36 (ProbeSet 11739960_a_at) / Fold change (ACY-1035/veh), VPS36 (ProbeSet 11739960_a_at) / RFU SYPL1 (11715823_x_at) / Fold change /veh SYPL1 (11715823_x_at) / RFU IGFBP7 (11715501_s_at) / Fold change /veh IGFBP7 (11715501_s_at) / RFU REEP3 (11722064_at) / Fold change /veh REEP3 (11722064_at) / RFU IGLL1 (11728026_x_at) / Fold change /veh IGLL1 (11728026_x_at): dose or concentration left out as unconfirmed
Conditions: ProbeSet 11743580_s_at; LIST B

In the case of Nc1ccc(-c2cccs2)cc1NC(=O)c1ccc2c(c1)cc(C1CC1)n2CCN1CCOCC1 [ACY-1035], the “Fold change vs veh, ACTR2” value is reported as 0.83.
